The subject of series [1] is A-549 cells (lung cancer cells). In words: Cytotoxicity experiment 1: anticancer activity against A-549 cells, viable cell count after 3 days. Conditions: Homo sapiens, A549, 72 h, read-out: Cell Viabilities (%) of A-549 (Lung Cancer Cells).
Method: A-549 cells (lung cancer cells; Strain No. ECACC86012804; available from Laboratory Products Dept. of Dainippon Pharmaceuticals Inc. (now Dainippon Sumitomo Pharma Co., Ltd.)) were preliminarily seeded in 35 mm petri dishes containing Dulbecco's modified Eagle medium (DMEM) containing 20% of fetal bovine serum (FBS) in a concentration of 1×10^5/ml. The seeded cells were incubated at 36° C. for 1 day under 5% CO2 and were confirmed to be stuck at the bottom of the petri dishes. The resulting A-549 cells were divided into three groups, to the first group of which were added extracts from a medium used in the ingredient-production system in concentrations of 1, 10, 100 and 1000 μg/ml, to the second group of which was added NQ801 which was known to have an anticancer activity (see Patent Document 2) in said concentrations, and to the third group of which were added ether fractions extracted from Tabebuia avellanedae barks in a conventional manner in said concentrations. These groups were incubated at 36° C. for 3 days, and viable cells were counted and viabilities were calculated.
A further series deals with various tumor cells. Conditions: known from Patent Documents 1, 2 and Nonpatent Document 1; cited from earlier work.
Series [2] concerns MCF-7 cells (breast cancer cells). Kind of series: Cytotoxicity experiment 2: anticancer activity against MCF-7 cells, viable cell count after 3 days. Conditions: Homo sapiens, MCF7, 72 h, read-out: Cell Viabilities (%) of MCF-7 (Breast Cancer Cells).
Method: A-549 cells (lung cancer cells; Strain No. ECACC86012804; available from Laboratory Products Dept. of Dainippon Pharmaceuticals Inc. (now Dainippon Sumitomo Pharma Co., Ltd.)) were preliminarily seeded in 35 mm petri dishes containing Dulbecco's modified Eagle medium (DMEM) containing 20% of fetal bovine serum (FBS) in a concentration of 1×10^5/ml. The seeded cells were incubated at 36° C. for 1 day under 5% CO2 and were confirmed to be stuck at the bottom of the petri dishes. […] These groups were incubated at 36° C. for 3 days, and viable cells were counted and viabilities were calculated.
Cytotoxicity experiments for MCF-7 cells (breast cancer cells; Strain No. ECACC86012803; available from Laboratory Products Dept. of Dainippon Pharmaceuticals Inc. (now Dainippon Sumitomo Pharma Co., Ltd.)) were carried out in the similar manner to the Experiment 1.

We go through one compound from patent publication US20100215625A1, “EFFICIENT PREPARATION OF NAPHTHOQUINONE ANTICANCER ACTIVE INGREDIENTS” (TAHEEBO JAPAN CO., LTD., priority 2009, published 2010).

Take `C[C@H](O)c1cc2c(o1)C(=O)c1cccc(O)c1C2=O` [NQ801, (S)-2-(1-hydroxyethyl)-5-hydroxynaphtho[2,3-b]furan-4,9-dione]: in series [1], the viability at 1 µg/mL came to 90%, the viability at 10 µg/mL is 60%, the viability at 100 µg/mL is 30% and the viability at 1000 µg/mL came out at 0%. The “Cytotoxicity against various tumor cells” value in the series on various tumor cells was “potent cytotoxicity”. In series [2], the viability at 1 µg/mL was 90%, the viability at 10 µg/mL was determined as 60%, the viability at 100 µg/mL came out at 20% and the viability at 1000 µg/mL came out at 0%.
